Patent publication US20130287705A1, “METHOD OF TREATING MUCOSAL INFLAMMATION” (MCMASTER UNIVERSITY, priority 2010, published 2013)

What was measured:
DSS and DNBS colitis = details: PCPA treated mice after induction of colitis; cited from earlier work
DSS-induced colitis = DSS-induced colitis in mice treated with 5-HT7 antagonist; assay type: in vivo, C57BL/6 mice
dendritic cells = dendritic cells from TPH1-/- mice in DSS-colitis, stimulation with 5-HT; cited from earlier work
splenic dendritic cells = test: Ex vivo culture of CD11c positive splenic DCs from bone-marrow reconstituted mice post-DSS; assay type: cell-based; details: LPS and serotonin vs LPS only
Method: Mice were sacrificed by cervical dislocation and spleens were excised and placed in Spleen Dissociation Medium (STEMCELL Technologies) and incubated for 30 min at room temperature. They were then strained through a 70-μm nylon mesh filter (BD Falcon) and washed with PBS supplemented with 2% fetal bovine serum (FBS) and 1 mmol/L EDTA. Splenic DCs were isolated using a CD11c^+ isolation kit (EasySep®, STEMCELL Technologies) according to the manufacturer's guidelines.
DCs isolated using CD11c positive selection were incubated at 1×10^6 cells per mL for 24 hours at 37° C. with or without 100 ng/mL LPS (Sigma-Aldrich) in RPMI 1640 supplemented with 10% FBS, 100 U/mL penicillin, 100 μg/mL streptomycin, and 50 μM 2-mercaptoethanol (Invitrogen Life Technologies). Supernatents were collected after 24 hours and analyzed for cytokine levels using ELISA kits for murine IL-12p40, IL-1β, and IL-6 (Quantikine Murine; R&D Systems, Minneapolis, Minn., USA).
6-8 week old male recipient C57BL/6 mice (Taconic) were irradiated with two doses of 5.5 Gy 48 hours apart administered via a ^137Cs γ-irradiation source (Gamma Cell 40; Nordian, Kanata, ON, Canada). Bone marrow cells (no fewer than 5×10^4) were harvested from femurs and tibiae of donor mice (5-HT7^+/+) and 5-HT7^−/− and given via tail vein injection to recipient mice within two hours of the second irradiation exposure. […]

NC(Cc1ccc(Cl)cc1)C(=O)O (racemic) [PCPA, para-chloro-D, L-phenylalanine]
onset of colitis (DSS and DNBS colitis): Delayed onset | pro-inflammatory cytokine production (DSS and DNBS colitis): down-regulation | severity of colitis (DSS and DNBS colitis): decreased severity

CC1CCN(CC[C@H]2CCCN2S(=O)(=O)c2cccc(O)c2)CC1.Cl [SB-269970, (2R)-1-[(3-Hydroxyphenyl)sulfonyl]-2-[2-(4-methyl-1-piperidinyl)ethyl]pyrrolidinehydrochloride]
colitis severity (macroscopic damage) (DSS-induced colitis; 40 mg/kg i.p., day 5 post-DSS induction, compared to controls): significantly lower | histological scores (DSS-induced colitis; 40 mg/kg i.p., day 5 post-DSS induction, compared to controls, FIG. 1C): significantly less severe | myeloperoxidase (MPO) activity in colonic tissue (DSS-induced colitis; 40 mg/kg i.p., post-DSS, FIG. 2A): significantly lower | production of IL-1β in colonic tissue (DSS-induced colitis; 40 mg/kg i.p., post-DSS, FIG. 2B): lower production | production of TNF-α in colonic tissue (DSS-induced colitis; 40 mg/kg i.p., post-DSS, FIG. 2C): lower production | production of IL-6 in colonic tissue (DSS-induced colitis; 40 mg/kg i.p., post-DSS, FIG. 2D): lower production | Clinical disease activity scores (fecal blood and consistency, and weight loss) (DSS-induced colitis; 40 mg/kg intraperitoneally, days 4 and 5 post-DSS administration, vs vehicle (saline), FIG. 1A): significantly lower

NCCc1c[nH]c2ccc(O)cc12 [serotonin, 5-hydroxytryptamine]
IL-12 production (dendritic cells): restored | IL-1β production (splenic dendritic cells; DCs from mice reconstituted with wild-type BMC, FIG. 9): significantly up-regulated | increase in IL-1β production (splenic dendritic cells; DCs from spleens of transgenic mice (5-HT7-/- BMC)): not seen
